According to article PMC8602566 (Frontiers in Oncology, 2021):

Key:
[1] = test system: acetylated histone H3 in U87 cells; experiment: Western blot analysis for H3-histone acetylation; type: cell-based, Human; settings: various concentrations, 24 h
Experimental: U87 cells (5 × 10^5 cells/ml) in six-well plates were incubated with DMC-HA and lysed in radioimmunoprecipitation assay (RIPA) buffer containing protease and phosphatase inhibitors. Protein contents in the lysates were determined by Bradford’s assay, and 50 μg was separated by SDS polyacrylamide gel electrophoresis (SDS-PAGE) electrophoresis. Proteins were transferred to membranes and probed with human anti-acetylated H3 and anti-β actin antibodies as a loading control. Membranes were then labeled with the appropriate horseradish peroxidase (HRP)-conjugated immunoglobulin G (IgG), and protein bands were visualized using enhanced chemiluminescence. (Bio-Rad, Hercules, CA, USA).
Next, DMC-HA-induced acetylation of histone H3 in living cells was analyzed using Western blot method.

U87 tumor xenograft = settings: nude mice, 20 mg/kg once daily
Description: Six-week-old BALB/c nude mice were purchased from Shanghai Experimental Animal Center of Chinese Academy of Science (Shanghai, China). All animal protocols were implemented according to the guidelines of the Association for Assessment and Accreditation of Laboratory Animal Care. U87 cells (3 × 10^6) were subcutaneously implanted into the right flank of mice. After 6 days of tumor growth, tumors grew to approximately 100 mm^3, and mice were randomly divided into three groups with nine animals in each group. […] The control group was intraperitoneally injected an equal volume of DMSO. Body weights and tumor volumes were measured every 2 days. After treatment, all of the mice were sacrificed, and the tumors were harvested, weighted, and photographed. The tumor volume was calculated according the formula: tumor volume = (length × width^2)/2.
U87 cells were subcutaneously inoculated into the right flank of mice.

SIRT1 = SIRT1 (Homo sapiens, UniProt Q96EB6); experiment: HDACs inhibition assay, SIRT1
Experimental: The inhibition assays for HDACs were carried out according to standard protocols. […] The reaction was stopped by the addition of 45 μl of 100 mM HEPES (pH 7.5) and 0.08% sodium dodecyl sulfate (SDS). The substrate and the product were then separated electrophoretically using a LabChip 3000 system (Caliper Life Sciences, Hopkinton, MA) with blue laser excitation and green fluorescence detection.

[2] = test system: Human lung cancer cell line A549; experiment: MTT cell viability assay, A549; type: cell-based; settings: A549, 72 h, read-out: IC50 antiproliferative activity A549
Experimental: (§1) Cell viability was measured using the 3-(4,5-dimethylthiazol-2-yl)-2,5-diphenyltetrazolium bromide (MTT) assay and was expressed as a ratio to the absorbance value at 570 nm of the control cells.

[3] = test system: Human liver cancer cell line HepG2; experiment: MTT cell viability assay, HepG2; type: cell-based; settings: HepG2, 72 h, read-out: IC50 antiproliferative activity HepG2
Experimental: as §1

[4] = test system: Human leukemia cell line K562; experiment: MTT cell viability assay, K562; type: cell-based; settings: K562, 72 h, read-out: IC50 antiproliferative activity K562
Experimental: as §1

[5] = test system: Human colon carcinoma cell line SW-620; experiment: MTT cell viability assay, SW-620; type: cell-based; settings: SW-620, 72 h, read-out: IC50 antiproliferative activity SW-620
Experimental: as §1

[6] = test system: Human glioblastoma cell line U251; experiment: MTT cell viability assay, U251; type: cell-based; settings: U-251, 72 h, read-out: IC50 antiproliferative activity U251
Experimental: as §1

[7] = test system: Human glioblastoma cell line U87; experiment: MTT cell viability assay, U87; type: cell-based; settings: 72 h, read-out: IC50 antiproliferative activity U87
Experimental: Human GBM U87 cell line was purchased from the American Type Culture Collection (ATCC). Cells were cultured in Dulbecco’s modified Eagle’s medium (DMEM) supplemented with 10% fetal bovine serum (FBS) and maintained in a 37°C, 5% CO2 incubator. After cells were routinely passaged at 2- to 3-day intervals, experiments were carried out when the cells entered exponential growth phase.
as §1

[8] = test system: Human glioma cell line SHG44; experiment: MTT cell viability assay, SHG44; type: cell-based; settings: SHG-44, 72 h, read-out: IC50 antiproliferative activity SHG44
Experimental: as §1

[9] = test system: Human glioma cell line LN229; experiment: MTT cell viability assay, LN229; type: cell-based; settings: LN-229, 72 h, read-out: IC50 antiproliferative activity LN229
Experimental: as §1

[10] = test system: Human umbilical vein endothelial cells HUVEC; experiment: MTT cell viability assay, HUVEC; type: cell-based; settings: Homo sapiens, HUVEC, 72 h, read-out: IC50 HUVEC
Experimental: as §1

all eight cell lines = experiment: Antiproliferative activity, panel of eight cancer cell lines (summary); type: cell-based; settings: Homo sapiens, read-out: IC50 values against all eight cell lines
Experimental: Cells (5 × 10^4) were seeded into 96-well plates and exposed to vehicle (PBS) or different concentrations of compounds for 72 h. Cell viability was measured using the 3-(4,5-dimethylthiazol-2-yl)-2,5-diphenyltetrazolium bromide (MTT) assay and was expressed as a ratio to the absorbance value at 570 nm of the control cells.
As DMC-HA was identified as a potent novel inhibitor for HDACs, its antiproliferative activities on a panel of cancer cell lines and normal cells were evaluated, including four glioma cell lines, and the results are shown in Table 2. Vorinostat and curcumin were also tested as positive controls. […].

[11] = Hepatic microsome stability assay, human; type: in vitro ADME; settings: human liver microsomes, NADPH, 37°C, pH 7.4
Experimental: (§2) Metabolic stability was assessed in the presence of human, mouse, and rat liver microsomes (XenoTech, Lenexa, KS, USA). All liquid dispenses and transfer steps were performed with the Freedom Evo automated liquid handler (Tecan US). Compound stock solutions were initially prepared in 100% DMSO and subsequently diluted in acetonitrile for the assay. The pH of the reactions was kept at 7.4 with potassium phosphate buffer. The reaction wells were prepared by adding microsomes to a well and allowed to warm to 37°C. Then, compound was added to each well. The reactions were […] by adding cofactor reduced nicotinamide adenine dinucleotide phosphate (NADPH) to the reaction well containing microsomes and compounds. Negative controls received buffer only. Immediately after reactions started, 0-min aliquots were promptly collected and mixed in a separate well with ice cold acetonitrile to quench the reactions. The remainder of the reaction volume was incubated at 37°C with shaking. An additional aliquot was collected at 60 min after the start of the reaction and promptly quenched with ice cold acetonitrile. Samples were vortexed and centrifuged at 3,500 rpm for 10 min. The amount of compound in the supernatant was determined by liquid chromatography–tandem mass spectrometry (LC/MS/MS) (Thermo Fischer Scientific, San Jose, CA, USA), and the percent of parent compound remaining after 60 min was calculated. Results are the mean of each reaction triplicate, normalized to the internal standard, and expressed as the percent of compound remaining after the incubation time.
(§3) Structures that are active in vitro may not be potent in vivo due to their susceptibility to metabolism in the body. We then thoroughly examined the liver microsomal metabolic stability of DMC-HA across three different species (Table 3). […] In addition, the half-life of DMC-HA in human microsome is generally two to three times longer than those in mice and rats. Collectively, the in vitro liver microsomal stability of DMC-HA is favorable, guaranteeing its further in vivo studies.

[12] = Hepatic microsome stability assay, mice; type: in vitro ADME; settings: mouse liver microsomes, NADPH, 37°C, pH 7.4
Experimental: as §2, §3

[13] = Hepatic microsome stability assay, rat; type: in vitro ADME; settings: rat liver microsomes, NADPH, 37°C, pH 7.4
Experimental: as §2, §3

Chain of SIRT1 (Q96EB6 whole entry): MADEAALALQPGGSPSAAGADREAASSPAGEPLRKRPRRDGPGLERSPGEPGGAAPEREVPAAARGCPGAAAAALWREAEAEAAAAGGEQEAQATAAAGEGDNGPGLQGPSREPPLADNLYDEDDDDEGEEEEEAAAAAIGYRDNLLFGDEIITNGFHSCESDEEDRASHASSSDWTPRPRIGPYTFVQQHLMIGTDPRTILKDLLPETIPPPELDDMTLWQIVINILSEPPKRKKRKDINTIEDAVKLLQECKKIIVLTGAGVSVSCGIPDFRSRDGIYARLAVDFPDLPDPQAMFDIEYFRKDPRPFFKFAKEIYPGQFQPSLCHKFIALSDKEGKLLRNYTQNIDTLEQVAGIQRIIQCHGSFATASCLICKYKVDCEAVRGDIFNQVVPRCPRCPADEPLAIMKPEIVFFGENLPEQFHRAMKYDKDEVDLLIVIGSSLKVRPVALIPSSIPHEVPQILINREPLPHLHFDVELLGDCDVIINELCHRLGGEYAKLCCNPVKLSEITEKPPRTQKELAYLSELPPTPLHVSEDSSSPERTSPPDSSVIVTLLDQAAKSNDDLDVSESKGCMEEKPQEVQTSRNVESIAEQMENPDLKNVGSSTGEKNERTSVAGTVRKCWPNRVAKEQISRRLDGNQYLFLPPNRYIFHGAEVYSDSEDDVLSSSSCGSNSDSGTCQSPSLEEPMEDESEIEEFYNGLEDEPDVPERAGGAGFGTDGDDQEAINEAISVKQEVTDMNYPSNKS

Structure (SMILES) | acetylation of histone H3, dose dependence [1] | effects on the body weight (U87 tumor xenograft) | toxicity during the administration period (U87 tumor xenograft) | IC50 (SIRT1) | IC50 [2] | IC50 [3] | IC50 [4] | IC50 [5] | IC50 [6] | IC50 [7] | IC50 [8] | IC50 [9] | IC50 [10] | IC50 (all eight cell lines) | microsomal CLint [11] | half-life ([11]; read-out: Human Liver Microsomal Stability T1/2) | microsomal CLint [12] | half-life ([12]; read-out: Mice Liver Microsomal Stability T1/2) | microsomal CLint [13] | half-life ([13]; read-out: Rat Liver Microsomal Stability T1/2)
O=C(CCCCCCC(=O)Nc1ccccc1)NO [Vorinostat, suberoylanilide hydroxamic acid, reference compound] | dose dependently increased the acetylation of histone H3 | no effects on the body weight | no observable toxicity | > 10 µM |  |  |  |  |  |  |  |  |  |  |  |  |  |  |  | 
COc1cc(/C=C/C(=O)CC(=O)/C=C/c2ccc(O)c(OC)c2)ccc1O [Curcumin, reference compound] |  |  |  |  | 32.9 ± 3.99 µM | 18.3 ± 3.21 µM | 16.4 ± 1.23 µM | 49.2 ± 7.42 µM | 27.6 ± 3.11 µM | 31.9 ± 2.9 µM | 24.6 ± 4.52 µM | 21.9 ± 4.65 µM | 58.5 ± 7.92 µM | 16.4 to 49.2 µM | 82 µL/min/mg | 17.2 min | 92.9 µL/min/mg | 15.3 min | 138 µL/min/mg | 10.4 min
